Measured values reported in patent publication US12702660B2, “Method for treating cancer with an oral dosage form of an estrogen receptor-alpha inhibitor” (Eisai R&D Management Co., Ltd., priority 2019, dated 2026).

How the values were obtained:
Ki67 = experiment: Pharmacodynamics: Ki67 levels post-treatment; format: in vivo, human; settings: across all dose levels post-treatment
Description: (§1) Methods were used to analyze whether H3B-6545 inactivates both wild-type and mutant ERα by targeting cysteine 530 and enforcing a unique antagonist conformation. Methods: Women with locally advanced or metastatic HR+BC are treated (tx) with H3B-6545 drug product administered once daily orally by capsule over a 28 day cycle after progression on at least one hormonal therapy and at least one additional therapy/regimen. Dose escalation uses a 3+3 design with the option to backfill previously cleared doses and allows for intrapatient dose escalation. This example explored the safety, pharmacokinetics and pharmacodynamics of H3B-6545 in women with HR+BC to identify a recommended subsequent dose for testing.

[1] = Plasma PK of capsules vs tablets in healthy human subjects, relative bioavailability; format: in vivo; settings: capsules and tablets
Description: Blood samples were collected at the planned time points from each patient and centrifuged. The plasma portion of each sample was then transferred to a K2EDTA tube, which was then shipped to a bioanalytical lab for concentration measurement using LC-MS/MS. The concentration data were then analyzed using Phoenix® WinNonlin software to obtain PK parameters. The obtained PK parameters were further summarized using analytical software.
Blood samples (approximately 5 mL each) were collected from human patients pre-dose and at various hourly time points post-dose. Plasma concentrations of H3B-6545 were determined using a validated high-performance liquid chromatography/tandem mass spectrometry (LC-MS/MS) method. The lower limit of quantification was 0.100 ng/mL.
The PK Analysis Set included subjects who received H3B-6545 drug product in capsules or tablets and had sufficient evaluable plasma concentration data to derive at least 1 primary PK parameter in each treatment. […]
Pharmacokinetic parameters of H3B-6545 were calculated using noncompartmental methods, using an appropriate model for plasma data and extravascular administration. The PK parameters included, but were not limited to, area under the curve to the time of the last quantifiable concentration (AUC0-t), maximum concentration (Cmax), and time at which the maximum concentration occurred (tmax). […]

[2] = tested on: ER target gene expression; experiment: Pharmacodynamics: ER target gene expression; format: in vivo, human; settings: patients, 100 to 450 mg/day
Description: as §1

[3] = tested on: locally advanced or metastatic ER+HER2−BC; experiment: Tumor response and progression-free survival, phase 1 dose escalation; format: in vivo, human
Description: Example 3 reports Clinical and Genomics Analysis of a single trial. The Study Population in Example 3 was as follows: • Women ≥18 years old with locally advanced or metastatic ER+HER2−BC. • Progression on at least one hormonal therapy and at least one additional therapy/regimen; no maximum number of prior lines of therapy. • ECOG performance status of 0 or 1. • Adequate bone marrow and organ function. • Excluded if had bone-only disease or inflammatory BC.
as §1
• H3B-6545 administered once daily orally over a 28 day cycle. • Dose escalation using a standard 3+3 study design using dose cohorts of 100, 200, 300, 450, and 600 mg QD. • Patients allowed to backfill previously cleared doses. • Intra-patient dose escalation allowed after completion of Cycle 3. Results (as of Apr. 20, 2019) Patient Population: • 46 patients were treated with H3B-6545 at doses of 100 to 600 mg QD. • 42 (91.3%) patients received a prior CDK4/6 inhibitor and 32 (69.6%) prior fulvestrant. • 30 (65.2%) patients received ≥3 prior anti-cancer therapy lines in the advanced/metastatic setting.

[4] = Total (N = 46), 100 to 600 mg QD
[5] = as of Apr. 20, 2019, 46 patients, 100 to 600 mg QD

In the case of `CN(C)C(=O)/C=C/CNCCOc1ccc(/C(=C(/CC(F)(F)F)c2ccccc2)c2ccc3[nH]nc(F)c3c2)cn1` [H3B-6545, (E)-N,N-dimethyl-4-[2-[5-[(Z)-4,4,4-trifluoro-1-(3-fluoro-1H-indazol-5-yl)-2-phenylbut-1-enyl]pyridin-2-yl]oxyethylamino]but-2-enamide], the “decrease in Ki67 levels” value (Ki67) was 50%, the tolerability [1] was “well-tolerated” and the “ER target gene expression” value [2] was “inhibited ER target gene expression”. The “Best Overall Response: Complete Response (CR)” value (“Best Overall Response … (CR)” for short) ([3]; 100 mg QD (N = 6)) was 0 (0.0) n (%), the “Best Overall Response: Not Evaluable (NE)” value ([3]; 100 mg QD (N = 6)) was 0 (0.0) n (%) and the “Best Overall Response: Partial Response (PR)” value (“Best Overall Response … (PR)” for short) ([3]; 100 mg QD (N = 6)) was 1 (16.7) n (%). For the same compound, the “Best Overall Response: Progressive Disease (PD)” value (from here on “Best Overall Response … (PD)”) ([3]; 100 mg QD (N = 6)) was 0 (0.0) n (%), the “Best Overall Response: Unknown (UNK)” value ([3]; 100 mg QD (N = 6)) was 0 (0.0) n (%) and the “Objective Responses (CR + PR)” value ([3]; 100 mg QD (N = 6)) was 1 (16.7) n(%). For the same compound, the “Progressive-Free Survival, Median (95% CI)” value ([3]; 100 mg QD (N = 6)) was 9.3 (7.4, NE) months, the “Progressive-Free Survival, Q1 (95% CI)” value ([3]; 100 mg QD (N = 6)) was 7.5 (7.4, 11.0) months and the “Best Overall Response … (CR)” value ([3]; 200 mg QD (N = 12)) was 0 (0.0) n (%). For the same compound, the “Best Overall Response: Not Evaluable (NE)” value ([3]; 200 mg QD (N = 12)) was 4 (33.3) n (%), the “Best Overall Response … (PR)” value ([3]; 200 mg QD (N = 12)) was 1 (8.3) n (%) and the “Best Overall Response … (PD)” value ([3]; 200 mg QD (N = 12)) was 2 (16.7) n (%). For the same compound, the “Best Overall Response: Unknown (UNK)” value ([3]; 200 mg QD (N = 12)) was 1 (8.3) n (%), the “Objective Responses (CR + PR)” value ([3]; 200 mg QD (N = 12)) was 1 (8.3) n(%) and the “Progressive-Free Survival, Median (95% CI)” value ([3]; 200 mg QD (N = 12)) was 5.5 (0.9, NE) months. The “Progressive-Free Survival, Q1 (95% CI)” value ([3]; 200 mg QD (N = 12)) was 1.5 (0.9, 5.5) months, the “Best Overall Response … (CR)” value ([3]; 300 mg QD (N = 11)) was 0 (0.0) n (%) and the “Best Overall Response: Not Evaluable (NE)” value ([3]; 300 mg QD (N = 11)) was 3 (27.3) n (%). For the same compound, the “Best Overall Response … (PR)” value ([3]; 300 mg QD (N = 11)) was 0 (0.0) n (%), the “Best Overall Response … (PD)” value ([3]; 300 mg QD (N = 11)) was 5 (45.5) n (%) and the “Best Overall Response: Unknown (UNK)” value ([3]; 300 mg QD (N = 11)) was 0 (0.0) n (%). The “Objective Responses (CR + PR)” value ([3]; 300 mg QD (N = 11)) was 0 (0.0) n(%), the “Progressive-Free Survival, Median (95% CI)” value ([3]; 300 mg QD (N = 11)) was 1.8 (1.6, 5.4) months and the “Progressive-Free Survival, Q1 (95% CI)” value ([3]; 300 mg QD (N = 11)) was 1.8 (1.6, 1.8) months. For the same compound, the “Progressive-Free Survival, Q3 (95% CI)” value ([3]; 300 mg QD (N = 11)) was 5.4 (1.8, NE) months, the “Best Overall Response … (CR)” value ([3]; 450 mg QD (N = 10)) was 0 (0.0) n (%) and the “Best Overall Response: Not Evaluable (NE)” value ([3]; 450 mg QD (N = 10)) was 3 (30.0) n (%). For the same compound, the “Best Overall Response … (PR)” value ([3]; 450 mg QD (N = 10)) was 1 (10.0) n (%), the “Best Overall Response … (PD)” value ([3]; 450 mg QD (N = 10)) was 3 (30.0) n (%) and the “Best Overall Response: Unknown (UNK)” value ([3]; 450 mg QD (N = 10)) was 0 (0.0) n (%). For the same compound, the “Objective Responses (CR + PR)” value ([3]; 450 mg QD (N = 10)) was 1 (10.0) n(%), the “Progressive-Free Survival, Median (95% CI)” value ([3]; 450 mg QD (N = 10)) was 7.2 (1.8, 7.3) months and the “Progressive-Free Survival, Q1 (95% CI)” value ([3]; 450 mg QD (N = 10)) was 1.9 (1.8, 7.2) months. For the same compound, the “Progressive-Free Survival, Q3 (95% CI)” value ([3]; 450 mg QD (N = 10)) was 7.3 (2.1, 7.5) months, the “Best Overall Response … (CR)” value ([3]; 600 mg QD (N = 7)) was 0 (0.0) n (%) and the “Best Overall Response: Not Evaluable (NE)” value ([3]; 600 mg QD (N = 7)) was 4 (57.1) n (%). For the same compound, the “Best Overall Response … (PR)” value ([3]; 600 mg QD (N = 7)) was 0 (0.0) n (%), the “Best Overall Response … (PD)” value ([3]; 600 mg QD (N = 7)) was 1 (14.3) n (%) and the “Best Overall Response: Unknown (UNK)” value ([3]; 600 mg QD (N = 7)) was 0 (0.0) n (%). For the same compound, the “Objective Responses (CR + PR)” value ([3]; 600 mg QD (N = 7)) was 0 (0.0) n(%), the “Best Overall Response … (CR)” value [3, 4] was 0 (0.0) n (%) and the “Best Overall Response: Not Evaluable (NE)” value [3, 4] was 14 (30.4) n (%). For the same compound, the “Best Overall Response … (PR)” value [3, 4] was 3 (6.5) n (%), the “Best Overall Response … (PD)” value [3, 4] was 11 (23.9) n (%) and the “Best Overall Response: Unknown (UNK)” value [3, 4] was 1 (2.2) n (%). For the same compound, the “Objective Responses (CR + PR)” value [3, 4] was 3 (6.5) n(%), the “Progressive-Free Survival, Median (95% CI)” value [3, 4] was 7.2 (1.9, 7.4) months and the “Progressive-Free Survival, Q1 (95% CI)” value [3, 4] was 1.8 (1.6, 2.1) months. The “Progressive-Free Survival, Q3 (95% CI)” value [3, 4] was 7.5 (7.3, NE) months, the “Stable disease, patients” value ([3]; as of 10 Dec. 2018, 32 patients, 100 to 450 mg/day) was 15 patients and the “At least 6 months of therapy completed, % of patients” value [3, 5] was 30.4%. For the same compound, the “At least 6 months of therapy completed, patients” value [3, 5] was 14 patients, the “Confirmed partial response, % of patients” value [3, 5] was 6.5% and the “Confirmed partial response, patients” value [3, 5] was 3 patients. For the same compound, the “Stable disease, % of patients” value [3, 5] was 37.0%, the “Stable disease, patients” value [3, 5] was 17 patients and the mPFS ([3]; heavily pre-treated, post CDK4/6i setting, 46 patients) was 7.2 months. For the same compound, the “response of case study patient” value ([3]; patient case study, 450 mg QD, after 4 cycles) was “partial response”, the “decrease in the sum of the diameters of all target lesions” value ([3]; patient case study, 450 mg QD, baseline to C3D1) was −27.8% and the “decrease in the sum of the diameters of all target lesions” value ([3]; patient case study, 450 mg QD, baseline to C7D1) was −35.6%.
